Results on 88 compounds are retold here after a melting point compilation (Tetko et al.; mined from patent text by program, amines drawn as free bases though some values may be those of a salt).

Where only a bound is given, the exact number is not on record here.

As to `O=c1c2c([nH]n1-c1ccc(Cl)cc1)-c1cc(Cl)ccc1SC2`, the melting point (as a rule, the temperature of the solid-liquid transition) is 237 to 240 °C.

In turn, `Clc1ccc(-c2ncc3nc(Cl)cc(Cl)n23)cc1` displayed a melting point of 203 to 205 °C. Next, `COc1ccc(Nc2nc(Cl)cc3ccccc23)cc1`: 101 °C; `COC(=O)c1cc(I)c[nH]c1=O`: 190 to 192 °C; `Cc1c(O)c(O)cc2ccccc12`: 97 to 100 °C. The compound `CCCN(Cc1ccc(-c2ccccc2-c2nnn[nH]2)cc1)c1ncncc1C(=O)OCC` had a melting point of 160 to 162 °C.

Consider `Nc1cccc(-c2cnc(N)nc2)c1`, for which the melting point was in the range of 171 to 172 °C. For `COc1ccc(/C=C/C(=O)Nc2ccccc2C(N)=O)cc1OC` the value was 184 to 186 °C; for `COc1ccc(CN2C(=O)C3(COc4cc(OC)c(C#N)cc43)c3ccccc32)cc1` (stereo not drawn), 207 to 208 °C.

As for `CC1=C(C#N)C(c2cccc3nnc(-c4ccccc4)cc23)C(C(=O)OC(C)C)=C(C)N1` (stereo not drawn), the melting point lay in the range of 200 to 202 °C. For `CNCc1ccc([C@H]2CC[C@@H](N(C)C(=O)c3ccc(Cl)cc3)CC2)cc1` the value was 110 to 112 °C; for `Cc1oc(-c2ccco2)nc1COc1ccc(C=O)cc1Br`, 146 to 147 °C; for `O=C(NCC(O)c1ccccc1)C1CCCCC1` (stereo not drawn), 118 to 119 °C.

The compound `O=C(O)COc1ccc(SCc2ccc(OCc3ccc(Cl)c(Cl)c3)cc2)c2c1CCC2` returned a melting point of 168 °C. For `OCCOC1=Nc2ccc(Cl)cc2C(c2ccccc2)=NC1` the value was 142 to 144 °C; for `CC(C)(C)OC(=O)NCC(O)c1ccccc1` (stereo not drawn), 123 to 124 °C; for `O=C(NCCCOc1ccncc1)c1cccnc1`, 117 to 119 °C.

`O=c1[nH]c(=O)n(Cc2ccc(OCc3noc(-c4ccccc4)n3)cc2)o1` gave a melting point of 150 to 151 °C. For `CN1CCN(c2ccnc3c(NC(=O)c4c(Cl)cccc4Cl)cc(C(F)(F)F)cc23)C1=O` the value was more than 285 °C; for `CCCCOCCOc1ccc(-c2ccc3c(c2)C=C(C(=O)Nc2ccc(S(=O)CCn4cnnc4)cc2)CCN3CC(C)C)cc1` (stereo not drawn), 168 to 170 °C; for `CC(C)(C)c1ccccc1N1CCN(C(=O)CCC(=O)O)CC1`, 175 to 176 °C. Next, `N#Cc1ccc2c(c1)CCC=C2c1ccns1`: 77 to 81 °C; `CCOCn1cc(F)c(=O)n(C(=O)c2cccc(C(=O)Oc3nc(OC(=O)c4ccc(Cl)cc4)ccc3C#N)c2)c1=O`: 156 to 158 °C; `CC1CCC(C(C)C)C(OC2C=CC(=O)O2)C1` (stereo not drawn): 70 to 71 °C. For `COc1ccc(C(=O)c2c(-c3ccc(OC)cc3)oc3cc(OC)ccc23)cc1` the value was 106 to 109 °C; for `CC(=O)N1CCN=C1Nc1cc(C)nn1-c1ccc(Cl)cc1C`, 195 °C. `COC(=O)c1cc2cc(NS(=O)(=O)c3cccc(Cl)c3C)ccc2o1` came in with a melting point of 139 to 140 °C.

Compound `CCn1c(=O)ccn(-c2ccc(N3CCN(c4ccc(OC)cc4)CC3)cc2)c1=O` registered a melting point of 210 °C. For `c1ccc(COc2ccc(CNn3cncn3)cc2)cc1` the value was 123 to 124 °C.

In turn, `O=C(O)C1CCN(c2ncc(NS(=O)(=O)C(F)(F)F)c(NCc3ccccc3)n2)CC1` had a melting point of 160 °C. For `CCOC(=O)c1nc2scc(C)n2c1C` the value was 141 to 142 °C.

`O=C1C[C@@H]2O[C@@H](CSc3ccccc3)CN12` (racemic) yielded a melting point of 35.5 to 37 °C. Next, `CCOC(=O)c1cnn(C)c1C(=O)Nc1ccn2nc(N3CCCC3)nc2c1`: 233 to 234 °C. Next, `COP(=O)(Cc1cc(C)c(C)cc1CP(=O)(OC)OC)OC`: 66 to 69 °C. In turn, `CC(C)(C)C(=O)Nc1ccc(F)cc1-c1ccc(Cl)c(Cl)c1` registered a melting point of 130 to 131 °C. For `COC(=O)C=CCCC(C)C1CCC2C3CCC4CC(OC=O)CCC4(C)C3CC(OC=O)C12C` (stereo not drawn) the value was 112 to 115 °C; for `COC(=O)Cc1cccc(-c2nc(=O)c3ccccc3s2)n1`, 180 °C; for `O=C(O)CC1(CC(O)=NO)CCCCCC1`, 90 to 100 °C. For `Brc1nc(Br)n(COCc2ccccc2)c1Sc1ccccc1` the value was 89 to 90 °C. Turning to `COc1ccc(C=CC(=O)c2ccc(OCC3CO3)cc2)cc1` (stereo not drawn), the melting point lay in the range of 85 to 87 °C. Next, `COc1ccc(CC(=O)NC2CCN(Cc3ccccc3)CC2)cc1`: 171 to 173 °C; `CN(C(=O)c1ccc2nonc2c1)C1CCN(C(=O)OC(C)(C)C)CC1`: 98 to 100 °C; `Cn1c(COc2ccc(CC3SC(=O)N(C(c4ccccc4)(c4ccccc4)c4ccccc4)C3=O)cc2)nc2cc(Br)cnc21` (stereo not drawn): 97 to 100 °C. Compound `O=C(NCCSCc1cccc(Cl)c1)c1ccccc1` came in with a melting point of 75 to 76 °C. Next, `O=C(O)c1cc(-c2ccccc2)cnc1Cl`: 239 to 240 °C; `CCOC(=O)c1ccccc1OCC(O)COc1ccc(F)cc1` (stereo not drawn): 112 to 114 °C. In turn, `OC(c1cccnc1)c1c[nH]c2ccc(F)cc12` (stereo not drawn) yielded a melting point of 131 to 133 °C. For the compound `Cc1ccc(C2CCN(C[C@H](O)COc3cccc4oc(S(=O)(=O)N(C)C)cc34)CC2)cc1C`, the melting point lay in the range of 146 to 148 °C. For `Cn1nc(-c2cc(C=C(Cl)C(=O)O)c(Cl)cc2F)c(Cl)c1C(F)(F)F` the value was 195 to 196 °C; for `CCCCC(=O)N(Cc1ccc(-c2ccccc2-c2nnn[nH]2)cc1)C(C(=O)O)c1ccccc1` (stereo not drawn), 145 to 148 °C. Next, `CCOC(=O)Cc1ccc(NC(=O)CCc2cnoc2-c2ccc(Cl)cc2)cc1`: 117 to 118 °C. Next, `Cc1c2c(nn1-c1ccccc1)c(=O)[nH]c1ccccc12`: more than 250 °C; `CCN(CC)CCOc1ccc(NC(=O)C#Cc2ccc(-c3ccccc3)cc2)cc1Cl`: 105 to 108 °C. Turning to `COc1ccc(Cc2nc3c(c4c2[nH]c2ccccc24)C(O)CC(C)(C)C3)cc1` (stereo not drawn), the melting point was 146 °C. For `CCn1c(N)c(-c2ncc[nH]2)c(=O)c2ccc(C#CC(O)(c3ccccc3)C(F)(F)F)nc21` (stereo not drawn) the value was 260 °C. On to `CN1CCC(=C2c3ccccc3C=C(Br)c3ccccc32)CC1`, for which the melting point lay in the range of 127 to 129 °C. Next, `Cc1nn(-c2ccccn2)cc1COc1ccc(COc2ncccc2CC(=O)O)cc1`: 150 to 151 °C; `CCCCCOC(=O)Oc1ccc(-c2ccc(C#N)cc2)cc1`: 50.1 to 51 °C; `O=C1c2cccc([N+](=O)[O-])c2C2CC(O)CCN12` (stereo not drawn): more than 260 °C. For `Cn1cc2c(n1)-c1cnn(C)c1CC2` the value was 140 to 145 °C; for `COc1cc(C(=O)c2ccccc2N)ccn1`, 82 to 86 °C.

Compound `COc1ccc(CN(C(=O)C2CCCc3ccc(OC)cc32)c2ccc(C(C)C)cc2)cc1` (stereo not drawn) returned a melting point of 83 to 85 °C. Compound `N=C(Cc1ccccc1)NS(=O)(=O)C=Cc1ccc(Cl)c(Cl)c1` registered a melting point of 151 to 155 °C. Next, `CCCOc1ccccc1-c1nc(NC(=O)CCC)cc(=O)[nH]1`: 177 to 178 °C. Next, `O=C1C(=O)c2ccc(-c3cccnc3)cc2C2=C1SCC1(CCNCC1)O2`: 213 to 215 °C.

For `CCOP(=O)(OCC)C(O)c1ccc(NC(=O)CCc2oc(-n3cnc4ccccc43)nc2-c2ccc(Cl)cc2)cc1` (stereo not drawn), the melting point was 171 to 172 °C. As for `O=C(Nc1ccc(Cl)cn1)c1cc(Cl)ccc1NCC1CCN(C(=O)c2cccs2)CC1`, the melting point was in the range of 163 to 165 °C.

For the compound `CNC(=O)n1ccc(O)cc1=O`, the melting point stood at 268 °C. Take `Cc1ccc(S(=O)(=O)OC2CON(C(=O)OC(C)(C)C)C2)cc1` (stereo not drawn): the melting point lay in the range of 63 to 65 °C.

The compound `O=P(COc1ccc2ccccc2c1-c1c(OCP(=O)(c2ccccc2)c2ccccc2)ccc2ccccc12)(c1ccccc1)c1ccccc1` gave a melting point of 252 to 253 °C.

In turn, `COc1ccc2c(ccn3c(=O)c(C(=O)O)cnc23)c1` came in with a melting point of 302 to 304 °C. Next, `Cc1nnc2n1-c1ccc(N)cc1C(c1ccccc1F)=NC2(C)C`: 294 °C. As for `Cc1cc(-c2cc(C(F)(F)F)nn2-c2ccc(S(C)(=O)=O)cc2)ccc1-c1ccco1`, the melting point fell in the range of 174 to 176 °C. For `COc1ccc(-c2cc(=O)n(CC=Cc3ccc(Cl)cc3)nc2-c2ccc(OC)c(F)c2)cc1` the value was 144 to 145 °C; for `O=C(Nc1cccc(C(F)(F)F)c1)Nc1c(C(=O)O)[nH]c(=O)[nH]c1=O`, more than 300 °C; for `COc1ccc(-c2nn(-c3ccc(C)cc3)c3ncccc23)cc1`, 143 to 145 °C. In turn, `COc1cc(O)c(C=O)c2cc(-c3ccc(O)cc3)oc12` displayed a melting point of 254 to 255 °C. Next, `O=C(O)c1ccc(-c2csc(-c3ccc(C(F)(F)F)cc3)n2)cc1`: 275 to 276 °C; `Cc1c(C(N)=O)oc2nn(Cc3ccccc3)c(C)c12`: 228 to 230 °C. `CC(=O)Nc1cc(C(C)(C)C)nn1C(CCN1C(=O)c2ccccc2C1=O)=NOS(=O)(=O)c1ccc(C)cc1` gave a melting point of 195 to 201 °C. `COC(=O)c1ccc(/C=C/C(=O)NOC2CCCCO2)cc1` (stereo not drawn) came in with a melting point of 133 °C. Next, `c1ccc(COc2cnc(N3CCNCC3)nc2)cc1`: 94 to 97 °C. Regarding `CC(C)(C)OC(=O)NCCCn1c2c(c3ccc(NC(=O)C(=O)O)cc3c1=O)C(=O)c1ccccc1-2`, the melting point lay within 267 to 268 °C. Next, `CC1(C)C(=O)Oc2ccc3cc(C(=O)O)c(Cn4cncn4)cc3c21`: 262 to 265 °C. For `C#CCN(Cc1ccc2nc(C)[nH]c(=O)c2c1)c1ccc(C(=O)NC(C)(C#N)Cc2ccccc2)cc1` (stereo not drawn) the value was 208 to 209 °C. Next, `O=C(Nc1ccccc1N1CCc2ccccc21)C1CCCCC1`: 87 to 89 °C. Take `COC(=O)C(CC(=O)N1CCOCC1)Oc1ccccc1` (stereo not drawn): the melting point lay in the range of 83 to 84 °C. For `CSCCCCn1c(C)nc2c(N)nc3ccccc3c21` the value was 190 to 193 °C.
